The record followed here is patent publication US20100125059A1, “1-BIARYLAZETIDINONE DERIVATIVE” (Teijin Pharma Limited, priority 2007, published 2010).

One test concerns Caco-2 cells. Nature of the test: Cholesterol absorption inhibition assay (in vitro), [14C] cholesterol mixed micelles. In kind it is cell-based. As to conditions: Homo sapiens, 24 hours, read-out: cholesterol absorption inhibitory activity; for inhibition at 10 µM: concentration of 10 μM; for inhibition at 12.5 µM: concentration of 12.5 μM. The protocol: This assay measures cholesterol absorption inhibitory activity by adding mixed micelles containing [^14C] cholesterol to cells and measuring cholesterol taken in the cells as oleic acid cholesteryl ester. The assay is conducted after Caco-2 cells are seeded on multi-well plates and cultured (culture medium: DMEM containing 10% fetal bovine serum, 1% non-essential amino acids, 1% penicillin, and 1% streptomycin) for 2 weeks. To each well, the micelle solution (in an amount required to provide the following final concentrations: 600 μM of sodium oleate, 50 μM of phosphatidyl choline, 5 mM of sodium taurocholate, 2.5 μM of cholesterol, and 2.5 μM of [^14C] cholesterol) and a test compound solution (in an amount required to provide the final concentration of 0.5 to 25 μM) or a solvent as a control are added, and incubation is started at 37° C. 24 hours later, the culture medium is removed, and the lipid component is extracted with hexane/2-propanol (3:2, v/v) and applied onto thin-layer silica gel plates. After drying, each plate is eluted with a mixture of hexane, diethyl ether, and acetic acid in a ratio of 83:16:1. The plates are photoexposed on imaging plates and analyzed using BAS-2500 (FUJIFILM). The amounts of light exposure of the areas corresponding to the cholesteryl ester are calculated. Background is measured using a blank space of the plate. Inhibition rates are calculated using values obtained by subtracting the background values from both values of the control and the test sample, respectively, in accordance with the following equation. A test value is calculated as a percentage (%) with respect to the control.
In the Equation 1, A is the control group, BG is a background, and B is the test compound.
The following results were obtained from the measurement by this method on cholesterol absorption inhibitory activity of the compounds of the present invention. The following results were obtained by the evaluation using concentrations of 10 μM and/or 12.5 μM.

Test [1] deals with hamsters fed a high cholesterol diet. Nature of the test: Measurement of lipid lowering effect in hamsters fed a high cholesterol diet. In kind it is in vivo, Male Golden Syrian hamsters. Conditions: Mesocricetus auratus, po, 168 h, gavage once daily, 7 days. A digest of the protocol: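 Male Golden Syrian hamsters (6/group) on 0.5% cholesterol diet, dosed by gavage once daily in corn oil at 0.01 to 10 mg/kg; serum and liver sampled 4 h after last dose. TC, TG and LDL-C measured enzymatically; effects expressed as % suppression versus control and normal-diet groups.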

Setting [2] is: read-out: serum LDL-C lowering effect (suppression rate of an increase in serum LDL-C concentration).
The mark [3] stands for this setting: read-out: serum TG lowering effect (serum TG lowering rate).
[4] abbreviates: read-out: liver TC lowering effect (suppression rate of an increase in liver TC concentration).

The structures appear in SMILES notation. Read-outs that look alike come from different tables or passages of the source.

As for `O=C1[C@H](SC[C@H](O)c2ccc(Cl)cc2)[C@@H](c2ccc(O)cc2)N1c1ccc(-c2cccnc2)cc1` [Example 32, (3R,4R)-3-[(2R)-2-(4-chlorophenyl)-2-hydroxyethylthio]-4-(4-hydroxyphenyl)-1-[4-(pyridin-3-yl)phenyl]azetidin-2-one], in the test on Caco-2 cells, the inhibition at 10 µM was no less than 50% and the inhibition at 12.5 µM is no less than 60%. In addition, the inhibition in vivo at 0.01 mg/kg in test [1] (setting [2]) is no less than 30%. Besides, in test [1] (setting [3]), the inhibition in vivo at 0.1 mg/kg is no less than 20%.

In the case of `O=C1[C@H](SC[C@H](O)c2ccc(C(F)(F)F)cc2)[C@@H](c2ccc(O)cc2)N1c1ccc(-c2cccnc2)cc1` [Example 43, (3R,4R)-3-{(2R)-2-hydroxy-2-[4-(trifluoromethyl)phenyl]ethylthio}-4-(4-hydroxyphenyl)-1-[4-(pyridin-3-yl)phenyl]azetidin-2-one], the inhibition at 10 µM in the test on Caco-2 cells is no less than 50%. As to `O=C1[C@H](SC[C@H](O)c2ccc(F)cc2)[C@@H](c2ccc(O)cc2Cl)N1c1ccc(-c2cccnc2)cc1` [Example 59, (3R,4R)-3-[(2R)-2-(4-fluorophenyl)-2-hydroxyethylthio]-4-(2-chloro-4-hydroxyphenyl)-1-[4-(pyridin-3-yl)phenyl]azetidin-2-one], in the test on Caco-2 cells, the inhibition at 12.5 µM is no less than 60%. Besides, the inhibition in vivo at 0.01 mg/kg in test [1] (read-out: serum TC lowering effect (suppression rate of an increase in serum TC concentration)) is no less than 30%. For the same compound, the inhibition in vivo at 0.1 mg/kg in test [1] (setting [4]) is no less than 50%; in test [1] (setting [3]) it was no less than 20%. For the compound `Cc1ccc(-c2ccc(N3C(=O)[C@H](SC[C@H](O)c4ccc(F)cc4)[C@H]3c3ccc(O)cc3)cc2)cn1` [Example 20, (3R,4R)-3-[(2R)-2-(4-fluorophenyl)-2-hydroxyethylthio]-4-(4-hydroxyphenyl)-1-[4-(6-methylpyridin-3-yl)phenyl]azetidin-2-one], the inhibition at 10 µM with Caco-2 cells was no less than 50%. Further, the inhibition at 12.5 µM with Caco-2 cells was no less than 60%. Also, the inhibition in vivo at 0.01 mg/kg in test [1] (setting [4]) and in test [1] (setting [2]) was no less than 30% throughout. For the compound `O=C1[C@H](SC[C@H](O)c2ccc(F)cc2)[C@@H](c2ccc(O)cc2)N1c1ccc(-c2cccnc2)cc1` [Example 1, (3R,4R)-3-[(2R)-2-(4-fluorophenyl)-2-hydroxyethylthio]-4-(4-hydroxyphenyl)-1[4-(pyridin-3-yl)phenyl]azetidin-2-one], the inhibition at 12.5 µM in the test with Caco-2 cells is no less than 60%. Regarding `COc1ccc(CS[C@H]2C(=O)N(c3ccc(-c4cccnc4)cc3)[C@@H]2c2ccc(O)cc2)cc1` [Example 19, (3R,4R)-4-(4-hydroxyphenyl)-3-[(4-methoxyphenyl)methylthio]-1-[4-(pyridin-3-yl)phenyl]azetidin-2-one], the inhibition at 10 µM with Caco-2 cells is no less than 50%.

For `O=C1[C@H](SC[C@H](O)c2ccc(F)cc2)[C@@H](c2ccc(O)cc2)N1c1ccc(-c2cccnc2F)cc1` [Example 21, (3R,4R)-3-[(2R)-2-(4-fluorophenyl)-2-hydroxyethylthio]-1-[4-(2-fluoropyridin-3-yl)phenyl]-4-(4-hydroxyphenyl)azetidin-2-one], the inhibition at 10 µM in the test with Caco-2 cells is no less than 50%.

In the case of `Cc1cc(N2C(=O)[C@H](SC[C@H](O)c3ccc(F)cc3)[C@H]2c2ccc(O)cc2)ccc1-c1cccnc1` [Example 47, (3R,4R)-3-[(2R)-2-(4-fluorophenyl)-2-hydroxyethylthio]-4-(4-hydroxyphenyl)-1-[3-methyl-4-(pyridin-3-yl)phenyl]azetidin-2-one], the inhibition at 10 µM with Caco-2 cells was no less than 50%.

In the case of `O=C1[C@H](SC[C@H](O)c2ccc3c(c2)OCCO3)[C@@H](c2ccc(O)cc2)N1c1ccc(-c2cccnc2)cc1` [Example 29, (3R,4R)-3-[(2R)-2-(2H,3H-benzo[3,4-e]1,4-dioxin-6-yl)-2-hydroxyethylthio]-4-(4-hydroxyphenyl)-1-[4-(pyridin-3-yl)phenyl]azetidin-2-one], the inhibition at 10 µM with Caco-2 cells is no less than 50%.

Consider `O=C1[C@H](SC[C@H](O)c2ccc(F)cc2)[C@@H](c2ccc(O)cc2)N1c1ccc(-c2cccc3[nH]ccc23)cc1` [Example 13, (3R,4R)-3-[(2R)-2-(4-fluorophenyl)-2-hydroxyethylthio]-4-(4-hydroxyphenyl)-1-[4-(indol-4-yl)phenyl]azetidin-2-one], for which the inhibition at 10 µM in the test on Caco-2 cells was no less than 50%. As for `O=C1[C@H](SC[C@H](O)c2ccc(F)cc2)[C@@H](c2ccc(O)c(Cl)c2)N1c1ccc(-c2cccnc2)cc1` [Example 39, (3R,4R)-3-[(2R)-2-(4-fluorophenyl)-2-hydroxyethylthio]-4-(3-chloro-4-hydroxyphenyl)-1-[4-(pyridin-3-yl)phenyl]azetidin-2-one], the inhibition at 10 µM with Caco-2 cells was no less than 50%.

`O=C1[C@H](SC[C@H](O)c2ccc(F)cc2)[C@@H](c2ccc(O)cc2)N1c1ccc(-c2ccncc2)cc1` [Example 11, (3R,4R)-3-[(2R)-2-(4-fluorophenyl)-2-hydroxyethylthio]-4-(4-hydroxyphenyl)-1-[4-(pyridin-4-yl)phenyl]azetidin-2-one]: in the test on Caco-2 cells, the inhibition at 10 µM is no less than 50%. Still for that read-out and setting: the figure for `O=C1[C@H](SC[C@H](O)c2ccc(F)cc2)[C@@H](c2ccc(O)c(O)c2)N1c1ccc(-c2cccnc2)cc1` [Example 37, (3R,4R)-3-[(2R)-2-(4-fluorophenyl)-2-hydroxyethylthio]-4-(3,4-dihydroxyphenyl)-1-[4-(pyridin-3-yl)phenyl]azetidin-2-one] is no less than 50%. For the compound `COc1ncccc1-c1ccc(N2C(=O)[C@H](SC[C@H](O)c3ccc(Cl)cc3)[C@H]2c2ccc(O)cc2)cc1` [Example 57, (3R,4R)-3-[(2R)-2-(4-chlorophenyl)-2-hydroxyethylthio]-4-(4-hydroxyphenyl)-1-[4-(2-methoxypyridin-3-yl)phenyl]azetidin-2-one], in the test with Caco-2 cells, the inhibition at 10 µM is no less than 50% and the inhibition at 12.5 µM was no less than 60%. Take `CN(C)c1ccc(-c2ccc(N3C(=O)[C@H](SC[C@H](O)c4ccc(Cl)cc4)[C@H]3c3ccc(O)cc3)cc2)cn1` [Example 88, (3R,4R)-3-[(2R)-2-(4-chlorophenyl)-2-hydroxyethylthio]-1-[4-(6-dimethylaminopyridin-3-yl)phenyl]-4-(4-hydroxyphenyl)azetidin-2-one]: in the test with Caco-2 cells, the inhibition at 12.5 µM is no less than 60%. With `COc1cnccc1-c1ccc(N2C(=O)[C@H](SC[C@H](O)c3ccc(F)cc3)[C@H]2c2ccc(O)cc2)cc1` [Example 23, (3R,4R)-3-[(2R)-2-(4-fluorophenyl)-2-hydroxyethylthio]-4-(4-hydroxyphenyl)-1-[4-(3-methoxypyridin-4-yl)phenyl]azetidin-2-one], the inhibition at 10 µM in the test on Caco-2 cells was no less than 50%. Take `CC(=O)c1cncc(-c2ccc(N3C(=O)[C@H](SC[C@H](O)c4ccc(Cl)cc4)[C@H]3c3ccc(O)cc3)cc2)c1` [Example 105, (3R,4R)-3-[(2R)-2-(4-chlorophenyl)-2-hydroxyethylthio]-1-[4-(5-acetylpyridin-3-yl)phenyl]-4-(4-hydroxyphenyl)azetidin-2-one]: the inhibition at 12.5 µM with Caco-2 cells was no less than 60%. For `Cc1ncccc1-c1ccc(N2C(=O)[C@H](SC[C@H](O)c3ccc(F)cc3)[C@H]2c2ccc(O)cc2)cc1` [Example 54, (3R,4R)-3-[(2R)-2-(4-fluorophenyl)-2-hydroxyethylthio]-4-(4-hydroxyphenyl)-1-[4-(2-methylpyridin-3-yl)phenyl]azetidin-2-one], the inhibition at 10 µM in the test on Caco-2 cells is no less than 50%. On to `O=C1[C@H](SCCc2ccccc2)[C@@H](c2ccc(O)cc2)N1c1ccc(-c2cccnc2)cc1` [Example 4, (3R,4R)-4-(4-hydroxyphenyl)-3-(2-phenylethylthio)-1-[4-(pyridin-3-yl)phenyl]azetidin-2-one], for which, in the test with Caco-2 cells, the inhibition at 10 µM is no less than 50% and the inhibition at 12.5 µM was no less than 60%.

Regarding `O=C1[C@H](SC[C@H](O)c2ccc(F)cc2)[C@@H](c2ccc(O)cc2)N1c1ccc(-c2cccnc2)c(F)c1` [Example 36, (3R,4R)-3-[(2R)-2-(4-fluorophenyl)-2-hydroxyethylthio]-1-[3-fluoro-4-(pyridin-3-yl)phenyl]-4-(4-hydroxyphenyl)azetidin-2-one], the inhibition at 10 µM in the test on Caco-2 cells was no less than 50%.
